Test results taken from EPA's ToxRefDB 2.

Experiments:
rat [1] = conditions: Multigenerational reproductive toxicity study, other, Oral, Feed, dose end: 2 generation
dog [2] = conditions: Chronic toxicity; beagle; Oral; Feed; dose end: 52 week; group: systemic; systemic / hematology / anemia / anemia - hemolytic + systemic / hematology / platelet / platelet + systemic / in life observation / body …
mouse = conditions: Carcinogenicity; cd1; Oral; Feed; dose end: 78 week; group: systemic; systemic / in life observation / body weight / body weight gain + systemic / organ weight / liver / relative to body weight + systemic / …
rat [3] = conditions: Prenatal developmental toxicity study, sprague dawley, Oral, Gavage/Intubation, dose end: 15 GD
rabbit [4] = conditions: Prenatal developmental toxicity study, new zealand white, Oral, Gavage/Intubation, dose end: 19 GD
rat [5] = conditions: Combined chronic toxicity/carcinogenicity, sprague dawley, Oral, [Not Specified], dose end: 104 week, group: systemic
dog [6] = conditions: Chronic toxicity; beagle; Oral; Feed; dose end: 1 year; group: systemic; systemic / pathology microscopic / skeletal muscle / degeneration + systemic / pathology microscopic / skeletal muscle / infiltration …
rabbit [7] = conditions: Prenatal developmental toxicity study, new zealand white, Oral, Gavage/Intubation, dose end: 19 GD; remark: listed apart in the source
rat [8] = conditions: Peri- and post-natal toxicity study (Segment III); long evans; Injection; Subcutaneous; dose end: 3 PND; group: developmental; developmental / developmental landmark / vaginal opening / vaginal opening
rat [9] = conditions: Developmental neurotoxicity study, sprague dawley, Oral, Gavage/Intubation, dose end: 105 PND, group: cannot be grouped
dog [10] = conditions: Chronic toxicity, beagle, Oral, Feed, dose end: 104 week, group: systemic
rat [11] = conditions: Prenatal developmental toxicity study, sprague dawley, Oral, Gavage/Intubation, dose end: 20 GD
rat [12] = conditions: Multigenerational reproductive toxicity study, sprague dawley, Oral, [Not Specified], dose end: 2 generation
[13] = group: offspring, developmental / offspring survival late / viability index / viability index
[14] = group: offspring, developmental / offspring survival late / viability index / viability index + systemic / in life observation / body weight / offspring (pup…
[15] = group: parental, systemic / organ weight / liver / absolute + systemic / organ weight / liver / relative to body weight + systemic / pathology microscopic / …
[16] = group: developmental, developmental / developmental malformation / bone / delayed ossification + systemic / in life observation / body weight / fetal weight
[17] = group: developmental, developmental / developmental malformation / bone / delayed ossification + systemic / in life observation / body weight / fetal weight + …
[18] = group: maternal, systemic / in life observation / body weight / body weight + systemic / in life observation / body weight / body weight gain + systemic / in…
[19] = group: developmental, developmental / developmental malformation / bone / supernumerary
[20] = group: maternal, systemic / in life observation / body weight / body weight gain + systemic / in life observation / clinical signs / defecation + systemic / …
[21] = systemic / pathology gross / eye / discolored + systemic / pathology microscopic / eye / inflammation + systemic / pathology microscopic / …
[22] = group: developmental, developmental / developmental malformation / bone / short supernumerary
[23] = group: maternal, systemic / in life observation / body weight / body weight gain + systemic / in life observation / food consumption / food consumption
[24] = group: maternal, systemic / in life observation / body weight / body weight gain + systemic / in life observation / food consumption / food consumption + …
[25] = developmental / developmental landmark / eye opening / eye opening + developmental / developmental landmark / incisor eruption / incisor …
[26] = developmental / developmental landmark / incisor eruption / incisor eruption + developmental / developmental landmark / eye opening / eye …
[27] = systemic / clinical chemistry / alkaline phosphatase (alp/alk) / alkaline phosphatase (alp/alk) + systemic / organ weight / liver / absolute…
[28] = systemic / pathology microscopic / spleen / hemosiderosis
[29] = group: developmental, developmental / developmental malformation / bone / misaligned + developmental / developmental malformation / mouth / jaw / protruding …
[30] = group: offspring, systemic / in life observation / body weight / offspring (pup) weight
[31] = group: parental, systemic / in life observation / body weight / body weight + systemic / in life observation / clinical signs / [other] + systemic / in life …
[32] = group: reproductive, reproductive / reproductive performance / gestational length / gestational length

In the case of `CS(=O)(=O)c1cc(C(F)(F)F)ccc1C(=O)c1cnoc1C1CC1` [Isoxaflutole], the LEL (rat [1]; [13]) is reported as 17.4 mg/kg/day, the LOAEL (rat [1]; [13]) is reported as 17.4 mg/kg/day and the NEL (rat [1]; [14]) is reported as 1.76 mg/kg/day. The NOAEL (rat [1]; [14]) was 1.76 mg/kg/day, the LEL (rat [1]; [15]) was 17.4 mg/kg/day and the LOAEL (rat [1]; [15]) was 17.4 mg/kg/day. The NEL (rat [1]; [15]) was 1.76 mg/kg/day, the NOAEL (rat [1]; [15]) was 1.76 mg/kg/day and the LEL (dog [2]) was 453 mg/kg/day. It also gave an LOAEL (dog [2]) of 453 mg/kg/day, an NEL (dog [2]) of 44.8 mg/kg/day and an NOAEL (dog [2]) of 44.8 mg/kg/day. For the same molecule, the LEL (mouse) was 64.4 mg/kg/day, the LOAEL (mouse) was 64.4 mg/kg/day and the NEL (mouse) was 3.2 mg/kg/day. For the same molecule, the NOAEL (mouse) was 3.2 mg/kg/day, the LEL (rat [3]; [16]) was 100 mg/kg/day and the LOAEL (rat [3]; [16]) was 100 mg/kg/day. It also gave an NEL (rat [3]; [17]) of 10 mg/kg/day, an NOAEL (rat [3]; [17]) of 10 mg/kg/day and an LEL (rat [3]; [18]) of 500 mg/kg/day. The LOAEL (rat [3]; [18]) was 500 mg/kg/day, the NEL (rat [3]; [18]) was 100 mg/kg/day and the NOAEL (rat [3]; [18]) was 100 mg/kg/day. The LEL (rabbit [4]; [19]) was 5 mg/kg/day, the LOAEL (rabbit [4]; [19]) was 5 mg/kg/day and the NEL (rabbit [4]; [19]) was less than 5 mg/kg/day. The NOAEL (rabbit [4]; [19]) was less than 5 mg/kg/day, the LEL (rabbit [4]; [20]) was 100 mg/kg/day and the LOAEL (rabbit [4]; [20]) was 100 mg/kg/day. The NEL (rabbit [4]; [20]) was 20 mg/kg/day, the NOAEL (rabbit [4]; [20]) was 20 mg/kg/day and the NEL (rat [5]; systemic / organ weight / liver / absolute + systemic / organ weight / liver / relative to body weight + systemic / pathology gross / liver…) was 2 mg/kg/day. For the same molecule, the LEL (rat [5]; [21]) was 20 mg/kg/day, the LOAEL (rat [5]; [21]) was 20 mg/kg/day and the NOAEL (rat [5]; [21]) was 2 mg/kg/day.

Work on `Cc1cnc(C2=NC(C)(C(C)C)C(=O)N2)c(C(=O)O)c1` (stereo not given) [Imazapic] yielded an LEL (dog [6]) of 137 mg/kg/day, an LOAEL (dog [6]) of 137 mg/kg/day and an NEL (dog [6]) of less than 137 mg/kg/day. For the same molecule, the NOAEL (dog [6]) was less than 137 mg/kg/day, the LEL (rabbit [7]; [22]) was 350 mg/kg/day and the LOAEL (rabbit [7]; [22]) was greater than 700 mg/kg/day. It also gave an NEL (rabbit [7]; [22]) of 175 mg/kg/day, an NOAEL (rabbit [7]; [22]) of no less than 700 mg/kg/day and an LEL (rabbit [7]; [23]) of 500 mg/kg/day. For the same molecule, the LOAEL (rabbit [7]; [23]) was 500 mg/kg/day, the NEL (rabbit [7]; [24]) was 350 mg/kg/day and the NOAEL (rabbit [7]; [24]) was 350 mg/kg/day.

Molecule `CC#C[C@]1(O)CC[C@H]2[C@@H]3CCC4=CC(=O)CCC4=C3[C@@H](c3ccc(N(C)C)cc3)C[C@@]21C` [Mifepristone] has an LEL (rat [8]) of 200 ppm, an LOAEL (rat [8]) greater than 600 ppm and an NEL (rat [8]) of less than 200 ppm. The NOAEL (rat [8]) was no less than 600 ppm.

Work on `CC(=O)OC/C=C(C)/C=C/C=C(C)/C=C/C1=C(C)CCCC1(C)C` [Retinol acetate] yielded an LOAEL (rat [9]; [25]) greater than 34.4 mg/kg/day, an NOAEL (rat [9]; [25]) of no less than 34.4 mg/kg/day and an LEL (rat [9]; [26]) of 8.6 mg/kg/day. The NEL (rat [9]; [26]) was less than 8.6 mg/kg/day.

`CC(C)N(C(=O)SCC(Cl)=C(Cl)Cl)C(C)C` [Tri-allate] was tested, and the LOAEL (dog [10]; [27]) was 5 mg/kg/day, the NOAEL (dog [10]; [27]) was 1.5 mg/kg/day and the LEL (dog [10]; [28]) was 1.5 mg/kg/day. The NEL (dog [10]; [28]) was less than 1.5 mg/kg/day, the LEL (rat [11]; [29]) was 90 mg/kg/day and the LOAEL (rat [11]; [29]) was 90 mg/kg/day. For the same molecule, the NEL (rat [11]; [29]) was 30 mg/kg/day, the NOAEL (rat [11]; [29]) was 30 mg/kg/day and the LOAEL (rat [11]; [23]) was 30 mg/kg/day. For the same molecule, the LEL (rat [11]; [24]) was 30 mg/kg/day, the NEL (rat [11]; [24]) was 10 mg/kg/day and the NOAEL (rat [11]; [24]) was 10 mg/kg/day. The LEL (rat [12]; [30]) was 2.5 mg/kg/day, the NEL (rat [12]; [30]) was less than 2.5 mg/kg/day and the NOAEL (rat [12]; [30]) was 7.5 mg/kg/day. For the same molecule, the LOAEL (rat [12]; group: offspring, systemic / in life observation / body weight / offspring (pup) weight + developmental / offspring survival late / [other] / [other]) was 30 mg/kg/day, the LOAEL (rat [12]; [31]) was 30 mg/kg/day and the NEL (rat [12]; [31]) was 2.5 mg/kg/day. The NOAEL (rat [12]; [31]) was 7.5 mg/kg/day, the LEL (rat [12]; group: parental, systemic / in life observation / body weight / body weight + systemic / organ weight / ovary / relative to body weight + systemic / organ …) was 7.5 mg/kg/day and the LEL (rat [12]; [32]) was 30 mg/kg/day. The LOAEL (rat [12]; [32]) was 30 mg/kg/day, the NEL (rat [12]; [32]) was 7.5 mg/kg/day and the NOAEL (rat [12]; [32]) was 7.5 mg/kg/day.
